Source: ChEMBL document CHEMBL1201862, “PubChem BioAssay data set” (2004)
Active and inactive are the calls of the source.

Tests used:
[1] = inhibition of ARNT PAS-B/TACC3 complex formation – biochemical, AlphaScreen, cherry-picked samples, confirmation (AID 651703); format: functional, Homo sapiens;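 also: His-tagged ARNT PAS-B domain paired with GST-TACC3 E629A dimer coactivator fragment; potency of inhibitors that break up the complex and lower AlphaScreen signal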
[2] = target: ADP-ribosylation factor GTPase-activating protein 1 (Rattus norvegicus, UniProt Q62848); assay: Fluorescence polarization-based biochemical high throughput dose response screening assay to identify inhibitors of ADP-ribosylation factor GTPase activating protein 1 (ARFGAP1).; format: functional
[3] = target: Arf-GAP with SH3 domain, ANK repeat and PH domain-containing protein 1 (Homo sapiens, UniProt Q9ULH1); format: functional;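 also: biochemical fluorescence polarization dose–response screen measuring inhibition of ASAP1; ASAP1 GAP domain stimulating GTP hydrolysis by truncated human ARF1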
[4] = target: Nuclear receptor subfamily 5 group A member 2 (Homo sapiens, UniProt O00482); format: functional, cell-based;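 also: HEK293T cells transfected with LRH-1 and a StAR promoter luciferase reporter; potency for inhibitors that lower LRH-1 driven reporter light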
[5] = target: Steroidogenic factor 1 (Homo sapiens, UniProt Q13285); assay: Counterscreen for inverse agonists of the liver receptor homolog-1 (LRH-1; NR5A2): Luminescence-based cell-based high throughput dose response assay to identify inverse agonists of the Steroidogenic Factor 1 Nuclear Receptor (SF1; NR5A1).; format: functional
[6] = nonselective StAR promoter luciferase inhibitors – cell-based, luminescence, luciferase reporter, counter-screen for LRH-1 inverse agonist project, dose response (AID 651969); format: functional
[7] = target: T1, Methionyl-tRNA synthetase, putative (Trypanosoma brucei brucei, UniProt Q38C91); format: functional, Trypanosoma brucei brucei strain 927/4 GUTat10.1
T1 sequence (Q38C91 whole entry): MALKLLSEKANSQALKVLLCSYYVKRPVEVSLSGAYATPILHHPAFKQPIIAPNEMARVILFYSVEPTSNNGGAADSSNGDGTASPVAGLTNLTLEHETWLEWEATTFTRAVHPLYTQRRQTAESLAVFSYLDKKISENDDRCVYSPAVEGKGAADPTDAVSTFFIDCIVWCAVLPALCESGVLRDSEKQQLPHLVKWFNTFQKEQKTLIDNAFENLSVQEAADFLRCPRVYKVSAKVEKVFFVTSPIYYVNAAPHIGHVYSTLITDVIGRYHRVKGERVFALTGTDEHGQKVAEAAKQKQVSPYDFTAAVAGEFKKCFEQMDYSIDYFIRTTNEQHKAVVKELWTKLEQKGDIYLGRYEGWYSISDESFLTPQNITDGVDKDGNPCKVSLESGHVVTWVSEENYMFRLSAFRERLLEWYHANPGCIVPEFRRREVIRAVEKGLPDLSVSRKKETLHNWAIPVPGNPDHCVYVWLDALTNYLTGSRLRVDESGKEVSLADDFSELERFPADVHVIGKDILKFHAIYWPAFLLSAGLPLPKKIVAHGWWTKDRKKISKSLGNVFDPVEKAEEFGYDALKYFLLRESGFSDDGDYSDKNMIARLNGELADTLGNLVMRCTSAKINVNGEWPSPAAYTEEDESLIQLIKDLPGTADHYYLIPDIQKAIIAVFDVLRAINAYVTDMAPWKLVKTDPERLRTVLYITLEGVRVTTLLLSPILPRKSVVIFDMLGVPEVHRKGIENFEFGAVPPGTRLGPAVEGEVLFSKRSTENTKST

[8] = Counterscreen for inhibitors of Trypanosoma brucei methionyl tRNA synthetase (MetRS): Luminescence-based cell-based high throughput dose response assay to identify compounds that are cytotoxic to Jurkat human T lymphocyte cells.; format: functional
[9] = target: Tyrosine-protein phosphatase non-receptor type 11 (Homo sapiens, UniProt Q06124); assay: PTPN11 enzyme inhibitors – biochemical, selectivity assay for STEP inhibitor project, dose response (AID 602367); format: functional; conditions: read-out: IC50_Mean
[10] = target: Tyrosine-protein phosphatase non-receptor type 5 (Homo sapiens, UniProt P54829); assay: PTPN5 enzyme inhibition – biochemical, fluorescence intensity, uHTS hits, confirmation (AID 602372); format: functional; conditions: read-out: IC50_Mean
[11] = target: T1, Methionyl-tRNA synthetase, putative; format: functional, Trypanosoma brucei brucei strain 927/4 GUTat10.1; remark: listed apart in the source
[12] = target: Dual specificity protein phosphatase 3 (Homo sapiens, UniProt P51452); assay: VHR phosphatase inhibition, dose response, selectivity assay for STEP inhibitor project, biochemical (AID 602374); format: functional; conditions: read-out: IC50_Mean
[13] = tested on: A549; assay: viability loss in A549 cells – cell-based, plate reader, cherry-pick samples, cytotoxicity control, dose response (AID 687028); format: functional; conditions: Homo sapiens
[14] = COV362 cell viability loss – plate reader, dry powder, SA12, cytotoxicity control for PAX8 inhibitor project, dose response (AID 743144); format: functional, cell-based
[15] = PAX5 cellular inhibition readout – cell-based, plate reader, dry powder samples, selectivity assay for PAX8 inhibitor project, dose response (AID 743047); format: functional;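 also: HEK293 cells carrying a Pax5 driven CD19 promoter luciferase reporter; potency of inhibitors that lower reporter luminescence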
[16] = target: Paired box protein Pax-8 (Homo sapiens, UniProt Q06710); assay: PAX8 transcriptional activity inhibition in RMG-I – RMG-I cells, luciferase, cherry-pick, dose response (AID 687027); format: functional, cell-based;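 also: luciferase reporter driven by Pax8 target thyroperoxidase promoter measured by SteadyGlo luminescence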
[17] = OVCAR4 cell viability loss – plate reader, dry powder, SA11, cytotoxicity control for PAX8 inhibitor project, dose response (AID 743150); format: functional, cell-based; conditions: OVCAR-4
[18] = IGROV1 cell killing – plate reader, dry powder samples, PAX8 inhibitor project, dose response (AID 743043); format: functional, cell-based; conditions: IGROV-1
[19] = PAX8-dependent cell viability loss – plate reader, dry powder, dose response (AID 743049); format: functional, cell-based
[20] = OV-90 cell viability loss – plate reader, dry powder, SA8, PAX8 inhibitor project, dose response (AID 743149); format: functional, cell-based
[21] = inhibitors acting on PAX2 in cells – cell-based, plate reader, dry powder samples, selectivity assay for PAX8 inhibitor project, dose response (AID 743048); format: functional;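 also: HEK293 cells carrying a WT1 promoter luciferase reporter driven by expressed Pax2; potency is for inhibition of Pax2 driven reporter signal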
[22] = OVCAR-3 cell viability loss – plate reader, dry powder samples, PAX8 inhibitor project, dose response (AID 743044); format: functional, cell-based
[23] = COV434 cell viability loss – plate reader, dry powder, SA7, cytotoxicity control for PAX8 inhibitor project, dose response (AID 743145); format: functional, cell-based
[24] = viability loss in HEK293 cells – cell-based, plate reader, cherry-picked samples, cytotoxicity control, dose response (AID 743446); format: functional
[25] = blockers of bursicon-stimulated LGR2 cAMP reporter – cell-based, HEK293, CRE-luciferase reporter, cherry pick, set 2, dose response (AID 743343); format: functional;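 also: transfected cells were stimulated with diluted bursicon conditioned medium after compound addition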
[26] = toxicity toward HepG2 liver cells – cell-based, plate reader, cherry-pick, antagonist series, cytotoxicity control, dose response (AID 743416); format: functional
[27] = A549 cell cytotoxicity, dose response, cytotoxicity control, plate reader, cherry-pick, antagonist series (AID 743412); format: functional, cell-based
[28] = blockade of melanocortin 4 receptor signaling – cell-based, plate reader, cherry pick, counter-screen for LGR2 antagonist project, dose response (AID 743444); format: functional;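 also: transfected HEK 293 cells stimulated with alpha-MSH peptide; potency of inhibitors of the alpha-MSH evoked signal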
[29] = viability loss in HepG2 hepatoma cells – cell-based, ATP luminescence, cherry-pick, activator set 2, cytotoxicity control, dose response (AID 1053143); format: functional
[30] = P. falciparum Dd2 growth inhibitors, dose response, SYBR Green, cherry-picked samples (AID 1159567); format: functional, cell-based
[31] = mouse embryonic fibroblast toxicity – cell-based, plate reader, dry powder, set 2, cytotoxicity control, dose response (AID 652280); format: functional; conditions: NIH3T3
[32] = T. cruzi growth inhibition in host cells, dose response, cell-based, plate reader, dry powder, set 2 (AID 652275); format: functional
[33] = target: T2, Low molecular weight phosphotyrosine protein phosphatase (Homo sapiens, UniProt P24666); format: functional; conditions: read-out: IC50_Mean
T2 sequence (P24666 whole entry): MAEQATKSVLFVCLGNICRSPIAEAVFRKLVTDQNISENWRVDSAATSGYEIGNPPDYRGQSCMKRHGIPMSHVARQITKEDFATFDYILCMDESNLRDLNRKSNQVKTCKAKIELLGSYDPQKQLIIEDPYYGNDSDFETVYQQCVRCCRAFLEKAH

[34] = target: T2, Low molecular weight phosphotyrosine protein phosphatase; format: functional; conditions: read-out: IC50_Mean; remark: listed apart in the source

Sequence of Nuclear receptor subfamily 5 group A member 2 (O00482 whole entry): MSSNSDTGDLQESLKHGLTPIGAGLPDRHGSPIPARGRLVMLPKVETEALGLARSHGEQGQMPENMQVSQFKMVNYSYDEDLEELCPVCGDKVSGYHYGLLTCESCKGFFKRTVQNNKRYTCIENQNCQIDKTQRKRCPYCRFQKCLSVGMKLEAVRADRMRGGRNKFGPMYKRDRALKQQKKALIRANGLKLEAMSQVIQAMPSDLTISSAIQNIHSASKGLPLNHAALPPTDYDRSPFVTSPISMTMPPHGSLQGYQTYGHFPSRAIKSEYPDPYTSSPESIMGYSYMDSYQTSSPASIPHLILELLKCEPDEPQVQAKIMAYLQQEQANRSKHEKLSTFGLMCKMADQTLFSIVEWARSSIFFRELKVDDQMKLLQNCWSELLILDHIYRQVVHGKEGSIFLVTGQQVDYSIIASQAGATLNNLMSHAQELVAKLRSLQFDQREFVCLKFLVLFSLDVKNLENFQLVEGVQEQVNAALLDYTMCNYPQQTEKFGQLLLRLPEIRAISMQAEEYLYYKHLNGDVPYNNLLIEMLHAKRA
Sequence of Paired box protein Pax-8 (Q06710 whole entry): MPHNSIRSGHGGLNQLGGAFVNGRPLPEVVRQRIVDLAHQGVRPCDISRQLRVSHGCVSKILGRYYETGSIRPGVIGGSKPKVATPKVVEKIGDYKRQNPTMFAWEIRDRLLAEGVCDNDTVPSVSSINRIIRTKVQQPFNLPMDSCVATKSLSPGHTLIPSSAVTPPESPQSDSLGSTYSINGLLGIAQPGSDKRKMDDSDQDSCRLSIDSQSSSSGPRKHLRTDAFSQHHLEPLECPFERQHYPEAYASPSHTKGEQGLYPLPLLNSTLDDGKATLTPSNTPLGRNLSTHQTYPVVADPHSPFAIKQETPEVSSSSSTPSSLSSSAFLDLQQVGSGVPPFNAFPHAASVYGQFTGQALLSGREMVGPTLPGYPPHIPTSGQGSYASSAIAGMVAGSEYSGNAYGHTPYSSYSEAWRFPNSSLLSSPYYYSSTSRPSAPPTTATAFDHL
Sequence of ADP-ribosylation factor GTPase-activating protein 1 (Q62848 whole entry, the tested form may be a part): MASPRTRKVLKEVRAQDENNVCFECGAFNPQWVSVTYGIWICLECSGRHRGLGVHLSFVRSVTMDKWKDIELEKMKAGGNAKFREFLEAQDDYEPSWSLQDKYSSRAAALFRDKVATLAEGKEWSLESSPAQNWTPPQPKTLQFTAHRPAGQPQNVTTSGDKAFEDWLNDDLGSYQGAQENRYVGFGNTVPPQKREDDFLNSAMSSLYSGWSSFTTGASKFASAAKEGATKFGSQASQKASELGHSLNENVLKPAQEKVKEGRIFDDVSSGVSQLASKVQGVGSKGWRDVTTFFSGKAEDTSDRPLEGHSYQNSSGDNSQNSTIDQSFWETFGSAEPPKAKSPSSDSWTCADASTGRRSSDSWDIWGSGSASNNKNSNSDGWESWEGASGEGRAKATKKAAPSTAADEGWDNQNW
Sequence of Dual specificity protein phosphatase 3 (P51452 whole entry): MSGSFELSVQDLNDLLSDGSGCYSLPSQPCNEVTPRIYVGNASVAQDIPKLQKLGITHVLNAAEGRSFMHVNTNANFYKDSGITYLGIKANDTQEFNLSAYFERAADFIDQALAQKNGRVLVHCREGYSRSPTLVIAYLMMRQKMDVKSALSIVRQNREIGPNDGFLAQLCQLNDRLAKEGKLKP
Sequence of Tyrosine-protein phosphatase non-receptor type 11 (Q06124 whole entry): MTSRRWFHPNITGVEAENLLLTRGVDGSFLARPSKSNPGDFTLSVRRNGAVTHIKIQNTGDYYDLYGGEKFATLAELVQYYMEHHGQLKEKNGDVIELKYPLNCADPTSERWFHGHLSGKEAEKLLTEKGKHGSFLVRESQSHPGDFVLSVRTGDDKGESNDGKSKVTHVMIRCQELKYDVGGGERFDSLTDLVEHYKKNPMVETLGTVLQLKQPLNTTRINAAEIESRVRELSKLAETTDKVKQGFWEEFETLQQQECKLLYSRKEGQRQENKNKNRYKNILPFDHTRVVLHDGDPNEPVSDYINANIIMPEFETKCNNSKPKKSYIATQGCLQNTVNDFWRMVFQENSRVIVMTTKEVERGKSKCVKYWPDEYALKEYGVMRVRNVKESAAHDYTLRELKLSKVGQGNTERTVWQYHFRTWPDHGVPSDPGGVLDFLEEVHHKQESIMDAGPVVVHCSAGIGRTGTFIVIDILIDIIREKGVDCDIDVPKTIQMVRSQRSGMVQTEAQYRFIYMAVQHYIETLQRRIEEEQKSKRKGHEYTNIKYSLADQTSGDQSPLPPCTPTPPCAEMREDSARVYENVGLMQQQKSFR
Sequence of Tyrosine-protein phosphatase non-receptor type 5 (P54829 whole entry): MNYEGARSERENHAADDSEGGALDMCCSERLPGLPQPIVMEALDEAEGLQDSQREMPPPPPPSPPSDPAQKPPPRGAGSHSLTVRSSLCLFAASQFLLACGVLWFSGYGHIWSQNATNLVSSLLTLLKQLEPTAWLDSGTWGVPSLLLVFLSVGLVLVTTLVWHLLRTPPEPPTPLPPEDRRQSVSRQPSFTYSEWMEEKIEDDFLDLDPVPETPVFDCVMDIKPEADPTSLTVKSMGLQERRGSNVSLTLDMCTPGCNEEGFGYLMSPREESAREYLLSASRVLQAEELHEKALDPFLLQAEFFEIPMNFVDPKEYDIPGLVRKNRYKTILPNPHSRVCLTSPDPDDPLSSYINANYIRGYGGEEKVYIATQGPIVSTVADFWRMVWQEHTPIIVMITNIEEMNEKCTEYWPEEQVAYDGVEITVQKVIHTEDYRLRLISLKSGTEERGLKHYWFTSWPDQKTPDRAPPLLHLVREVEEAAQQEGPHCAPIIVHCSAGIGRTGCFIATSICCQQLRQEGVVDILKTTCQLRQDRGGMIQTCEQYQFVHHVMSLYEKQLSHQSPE
Sequence of Arf-GAP with SH3 domain, ANK repeat and PH domain-containing protein 1 (Q9ULH1 whole entry, the tested form may be a part): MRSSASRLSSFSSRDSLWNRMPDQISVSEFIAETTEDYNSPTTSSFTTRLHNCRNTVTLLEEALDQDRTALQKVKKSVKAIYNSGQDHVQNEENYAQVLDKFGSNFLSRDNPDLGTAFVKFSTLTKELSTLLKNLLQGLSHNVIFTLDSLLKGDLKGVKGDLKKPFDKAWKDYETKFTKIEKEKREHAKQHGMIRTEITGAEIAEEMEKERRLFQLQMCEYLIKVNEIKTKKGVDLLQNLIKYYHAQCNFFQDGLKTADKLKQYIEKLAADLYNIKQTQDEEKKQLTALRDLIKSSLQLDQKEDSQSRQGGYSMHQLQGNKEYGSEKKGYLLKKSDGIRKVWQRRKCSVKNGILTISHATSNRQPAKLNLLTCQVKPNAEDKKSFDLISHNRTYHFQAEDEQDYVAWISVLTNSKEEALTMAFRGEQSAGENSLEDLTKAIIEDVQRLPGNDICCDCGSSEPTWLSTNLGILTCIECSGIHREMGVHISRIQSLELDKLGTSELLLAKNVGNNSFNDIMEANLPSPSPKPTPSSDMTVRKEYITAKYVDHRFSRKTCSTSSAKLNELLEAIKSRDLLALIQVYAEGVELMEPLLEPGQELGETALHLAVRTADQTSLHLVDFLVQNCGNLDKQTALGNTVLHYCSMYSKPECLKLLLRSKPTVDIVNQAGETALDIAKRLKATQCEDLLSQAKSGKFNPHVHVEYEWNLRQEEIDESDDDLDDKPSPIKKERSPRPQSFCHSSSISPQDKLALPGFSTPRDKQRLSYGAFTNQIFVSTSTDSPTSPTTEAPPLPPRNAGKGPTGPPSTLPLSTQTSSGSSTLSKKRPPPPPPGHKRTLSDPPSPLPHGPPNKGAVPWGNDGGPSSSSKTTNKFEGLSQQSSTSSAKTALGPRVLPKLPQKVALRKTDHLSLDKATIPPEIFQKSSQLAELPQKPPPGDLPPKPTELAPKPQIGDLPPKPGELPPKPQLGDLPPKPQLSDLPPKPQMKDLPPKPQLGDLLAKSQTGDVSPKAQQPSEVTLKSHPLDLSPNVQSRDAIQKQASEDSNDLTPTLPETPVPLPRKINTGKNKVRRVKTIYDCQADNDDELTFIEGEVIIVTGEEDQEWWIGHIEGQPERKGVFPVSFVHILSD
Sequence of Steroidogenic factor 1 (Q13285 whole entry): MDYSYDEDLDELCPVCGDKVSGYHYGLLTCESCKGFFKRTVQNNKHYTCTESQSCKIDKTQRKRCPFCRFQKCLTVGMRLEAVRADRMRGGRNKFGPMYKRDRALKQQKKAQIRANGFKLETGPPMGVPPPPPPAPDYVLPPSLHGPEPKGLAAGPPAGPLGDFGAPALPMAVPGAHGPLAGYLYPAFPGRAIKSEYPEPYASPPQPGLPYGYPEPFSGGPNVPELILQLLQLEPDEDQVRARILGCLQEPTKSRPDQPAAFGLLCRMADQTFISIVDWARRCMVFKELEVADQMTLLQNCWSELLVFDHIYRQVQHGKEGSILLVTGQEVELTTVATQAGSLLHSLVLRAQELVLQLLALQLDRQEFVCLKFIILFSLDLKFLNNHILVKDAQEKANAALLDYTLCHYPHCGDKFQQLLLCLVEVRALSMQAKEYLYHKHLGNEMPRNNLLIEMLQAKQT

Q: For `C[C@@H]1CN([C@H](C)CO)C(=O)c2cc(N(C)C)ccc2O[C@@H](C)CCCCO[C@@H]1CN(C)Cc1ccc2c(c1)OCO2`, which AC50 [1] is on record?
A: 74.9 µM (active)

Q: What does the source list for `Cc1ccc2nc(SCC(=O)N3CCC(Cc4ccccc4)CC3)nc(=O)n2c1`?
A: IC50 [2]: 26.9 µM (inactive); IC50 [3]: 32.7 µM (inactive)

Q: Which IC50 [4] does the source give for `CC(=O)Nc1cc(-c2ccc(F)cc2)cn2c(-c3ccc(S(C)(=O)=O)cc3)cnc12` here?
A: 8.66 µM (active)

Q: And the IC50 [5]?
A: 3.15 µM (active)

Q: And the IC50 [6]?
A: 21.3 µM (inactive)

Q: What does the source list for `Cc1ccc(S(=O)(=O)c2cnc3ccc(Cl)cc3c2O)cc1`?
A: IC50 [7]: 119 µM (inactive); IC50 [8]: 83.4 µM (inactive); IC50 [9]: 14.5 µM (active); IC50 [10]: 39.1 µM (inactive); IC50 [11]: 4.9 µM (active); IC50 [12]: 26.9 µM (inactive)

Q: Which AC50 [13] does the source give for `C[C@@H]1CCCCO[C@H](CN(C)C(=O)Nc2ccc(C(F)(F)F)cc2)[C@H](C)CN([C@@H](C)CO)C(=O)c2cc(NS(=O)(=O)c3ccc(F)cc3)ccc2O1` here?
A: 28.1 µM (active)

Q: Which AC50 [14] does the source give for `COc1ccc(S(=O)(=O)Nc2ccc3c(c2)C(=O)N([C@@H](C)CO)C[C@H](C)[C@H](CN(C)Cc2ccc(C(F)(F)F)cc2)OCCCC[C@H](C)O3)cc1` here?
A: 38.3 µM (active)

Q: What about the AC50 [15] of the same molecule?
A: 19.6 µM (active)

Q: What about the AC50 [16] of the same molecule?
A: 5.59 µM (active)

Q: And the AC50 [17]?
A: 33.6 µM (active)

Q: What about the AC50 [18] of the same molecule?
A: 34.5 µM (active)

Q: And the AC50 [19]?
A: 24.2 µM (active)

Q: And the AC50 [20]?
A: 21.9 µM (active)

Q: What about the AC50 [21] of the same molecule?
A: 15.5 µM (active)

Q: What about the AC50 [22] of the same molecule?
A: 17.1 µM (active)

Q: And the AC50 [23]?
A: 26.5 µM (active)

Q: For `O=C(Nc1nc2cc3c(cc2s1)OCCO3)c1cccs1`, which AC50 [24] is on record?
A: > 52 µM (inactive)

Q: And the AC50 [25]?
A: 2.01 µM (active)

Q: What about the AC50 [26] of the same molecule?
A: > 52 µM (inactive)

Q: And the AC50 [27]?
A: 28 µM (active)

Q: What about the AC50 [28] of the same molecule?
A: 3.84 µM (active)

Q: What about the AC50 [29] of the same molecule?
A: 26 µM (active)

Q: For `CN(C)CC#Cc1cccc(-c2nc(C(=O)N[C@@H]3CCN(Cc4ccccc4)C3)cc3c2[C@H](CCO)N([S+]([O-])C(C)(C)C)C3)c1` (some centres undefined), which AC50 [30] is on record?
A: 2.71 µM (active)

Q: And the AC50 [31]?
A: 5.14 µM (active)

Q: What about the AC50 [32] of the same molecule?
A: 0.58 µM (active)

Q: For `O=C(OCCNc1nc(-c2ccccc2)nc2ccccc12)c1ccncc1`, which IC50 [33] is on record?
A: 11.8 µM (active)

Q: And the IC50 [34]?
A: 24.6 µM (inactive)
